Publication PMC3968170 (PLoS Pathogens, 2014)

What was measured:
HitS ICD = target: T1, HitS ICD (Bacillus anthracis, UniProt Q81RT2); conditions: 5 uM kinase, 37 C, 30 min; labelled compound
T1 construct: gene GBAA_1956

HssS ICD = target: T2, HssS ICD (Bacillus anthracis, UniProt A0AAC8N8V0); conditions: 5 uM kinase, 37 C, 30 min; labelled compound
T2 construct: gene BA_3260
T2 sequence (A0AAC8N8V0 189-458 limits assumed): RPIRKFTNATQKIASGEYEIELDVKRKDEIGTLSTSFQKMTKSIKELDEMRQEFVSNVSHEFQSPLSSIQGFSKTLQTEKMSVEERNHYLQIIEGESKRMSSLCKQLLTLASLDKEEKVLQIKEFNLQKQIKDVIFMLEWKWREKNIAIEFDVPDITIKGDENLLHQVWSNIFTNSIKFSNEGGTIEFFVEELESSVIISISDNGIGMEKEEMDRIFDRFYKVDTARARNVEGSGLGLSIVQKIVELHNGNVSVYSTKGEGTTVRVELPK

T1 sequence (Q81RT2 74-351 limits assumed): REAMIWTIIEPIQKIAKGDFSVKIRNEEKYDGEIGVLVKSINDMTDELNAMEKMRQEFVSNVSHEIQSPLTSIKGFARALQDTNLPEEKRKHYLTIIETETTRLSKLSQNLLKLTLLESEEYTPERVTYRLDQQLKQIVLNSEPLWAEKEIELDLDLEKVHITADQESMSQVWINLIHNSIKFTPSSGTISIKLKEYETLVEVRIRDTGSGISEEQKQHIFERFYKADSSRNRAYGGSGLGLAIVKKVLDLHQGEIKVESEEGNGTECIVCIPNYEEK

Nc1ncnc2c1ncn2[C@@H]1O[C@H](COP(=O)(O)OP(=O)(O)OP(=O)(O)O)[C@@H](O)[C@H]1O [ATP]
autophosphorylation, SDS-PAGE and phosphorimager (HitS ICD): Both HKs autophosphorylate in the presence of ATP | autophosphorylation, SDS-PAGE and phosphorimager (HssS ICD): Both HKs autophosphorylate in the presence of ATP
